Assay results from PubChem BioAssay (NCI).
Where “and” joins values, the source holds several entries; their conditions need not be identical. Equal values may be shown once.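 96-well plates; 48 h exposure; 5 concentrations. Endpoints by linear interpolation between flanking doses. Not reached: highest tested concentration assigned. The concentration for 50% growth inhibition is given as GI50. TGI is the concentration that stops growth completely.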

Key:
Experiment in all cases: NCI tumour cell line growth inhibition, 48 h
PC-3 prostate = system: PC-3 prostate
SK-MEL-5 melanoma = system: SK-MEL-5 melanoma
UACC-257 melanoma = system: UACC-257 melanoma
SW-620 colon = system: SW-620 colon
LOX IMVI melanoma = system: LOX IMVI melanoma
SN12C renal = system: SN12C renal
NCI-H522 lung = system: NCI-H522 lung
KM12 colon = system: KM12 colon
MALME-3M melanoma = system: MALME-3M melanoma
NCI/ADR-RES ovarian = system: NCI/ADR-RES ovarian
OVCAR-4 ovarian = system: OVCAR-4 ovarian

Row | SMILES | TGI (PC-3 prostate) | TGI (SK-MEL-5 melanoma) | TGI (UACC-257 melanoma) | TGI (SW-620 colon) | TGI (LOX IMVI melanoma) | TGI (SN12C renal) | TGI (NCI-H522 lung) | TGI (KM12 colon) | TGI (MALME-3M melanoma) | TGI (NCI/ADR-RES ovarian) | TGI (OVCAR-4 ovarian) | GI50 (UACC-257 melanoma) | GI50 (NCI-H522 lung) | GI50 (SW-620 colon) | GI50 (LOX IMVI melanoma) | GI50 (SN12C renal) | GI50 (OVCAR-4 ovarian) | GI50 (NCI/ADR-RES ovarian)
1 | COC(=O)Cc1c(-c2c(CC(=O)OC)c3ccccc3n2C2OC(COC3OC(COC(C)=O)C(OC(C)=O)C(OC(C)=O)C3OC(C)=O)C(O)C(O)C2O)[nH]c2ccccc12 (centres undefined) | > 100 µM | > 100 µM | > 100 µM | > 100 µM | > 100 µM | > 100 µM | – | – | – | – | – | – | – | – | – | – | – | –
2 | Cc1cn(C2CC(/[N+]([O-])=N\Nc3ccc([N+](=O)[O-])cc3)C(CO)O2)c(=O)[nH]c1=O (centres undefined) | > 100 µM | – | > 100 µM | > 100 µM | > 100 µM | > 100 µM | > 100 µM | > 100 µM | > 100 µM | > 100 µM | – | – | – | – | – | – | – | –
3 | CCOC(=O)C(C(=O)OCC)C(=S)NC1OC(COC(C)=O)C(OC(C)=O)C(OC(C)=O)C1OC(C)=O (centres undefined) | – | > 100 µM | > 100 µM | > 100 µM | > 100 µM | > 100 µM | > 100 µM | > 100 µM | > 100 µM | > 100 µM | > 100 µM | – | – | – | – | – | – | –
4 | CCOC(=O)C(/C=N/C(N)=S)=C(/O)c1ccccc1 | – | > 100 µM | > 100 µM | > 100 µM | > 100 µM | > 100 µM | – | > 100 µM | – | > 100 µM | > 100 µM | – | – | – | – | – | – | –
5 | CC(C)N=C(NC#N)NS(=O)(=O)c1cnccc1NC1CCCCCCC1 | > 100 µM | > 100 µM | > 100 µM | > 100 µM | – | > 100 µM | > 100 µM | > 100 µM | > 100 µM | > 100 µM | > 100 µM | – | – | – | – | – | – | –
6 | COC(=O)c1cc(OCc2cc(OCc3ccc(Br)cc3)cc(OCc3ccc(Br)cc3)c2)cc(OCc2cc(OCc3ccc(Br)cc3)cc(OCc3ccc(Br)cc3)c2)c1 | > 100 µM | > 100 µM | > 100 µM | – | – | > 100 µM | > 100 µM | > 100 µM | > 100 µM | > 100 µM | > 100 µM | – | – | – | – | – | – | –
7 | Cc1nc2c(ccc3[nH]c4ccccc4c32)s1 | 47.9 µM | 29.6 µM | > 100 µM | 45.4 µM | – | 76.9 µM | 35 µM | 56.5 µM | > 100 µM | > 100 µM | > 100 µM | – | – | – | – | – | – | –
8 | CN1CCN(C(=S)N(C(=O)c2ccc(Cl)cc2)C2CCCCC2)CC1 | – | > 100 µM | > 100 µM | > 100 µM | > 100 µM | > 100 µM | > 100 µM | > 100 µM | > 100 µM | – | > 100 µM | – | – | – | – | – | – | –
9 | COc1ccc(OC)c2c1-c1nnnn1CCC2(C)C | > 100 µM | – | > 100 µM | > 100 µM | > 100 µM | > 100 µM | > 100 µM | > 100 µM | > 100 µM | > 100 µM | > 100 µM | – | – | – | – | – | – | –
10 | CN=C(NC#N)NCc1ccccc1 | – | > 100 µM | > 100 µM | > 100 µM | > 100 µM | > 100 µM | > 100 µM | > 100 µM | > 100 µM | – | > 100 µM | – | – | – | – | – | – | –
11 | O=c1ccc2c(Cl)sc(Cl)c2[nH]1 | > 100 µM | – | > 100 µM | > 100 µM | > 100 µM | > 100 µM | > 100 µM | > 100 µM | > 100 µM | > 100 µM | > 100 µM | – | – | – | – | – | – | –
12 | COc1cc(C2C(Cl)C(=O)N2NC(=O)c2ccccc2O)cc(OC)c1OC (centres undefined) | > 10 µM | > 10 µM | 7.46 µM | > 10 µM | > 10 µM | – | 8.21 µM | > 10 µM | – | – | > 10 µM | – | – | – | – | – | – | –
13 | COc1ccc(-c2nc3ccccc3c(=O)[nH]2)cc1OC | > 100 µM | > 100 µM | > 100 µM | > 100 µM | – | > 100 µM | – | > 100 µM | > 100 µM | > 100 µM | > 100 µM | – | – | – | – | – | – | –
14 | COC(=O)/C=C/c1cc(OC)c2c(c1)C(C(=O)OC)C(c1ccc(O)c(OC)c1)O2 (centres undefined) | > 100 µM | – | > 100 µM and 63.2 µM | > 100 µM | > 100 µM and 22.3 µM and 25.3 µM | > 100 µM | > 27.5 µM and 25.5 µM and 8.16 µM | > 88.2 µM and 20.9 µM and 15.7 µM | > 100 µM and 37.4 µM | > 33.9 µM and 26.6 µM and 12.9 µM | > 100 µM | > 25.9 µM and 6.49 µM | 3.96 µM and 3.17 µM and 1.92 µM | 2.93 µM and 1.45 µM and 1.46 µM | 7.16 µM and 4.36 µM and 1.04 µM | 13.9 µM and 9.44 µM and 4.63 µM | 7.9 µM and 7.77 µM and 18 µM | 3.4 µM and 2.76 µM and 1.68 µM
15 | CSc1nnc2n1-c1ccccc1SCC2 | – | – | > 100 µM | > 100 µM | > 100 µM | > 100 µM | > 100 µM | > 100 µM | > 100 µM | – | > 100 µM | – | – | – | – | – | – | –
16 | FC(F)(F)c1ccc(N=NN2CCCC2)cc1 | > 100 µM | > 100 µM | > 100 µM | > 100 µM | > 100 µM | > 100 µM | > 100 µM | 65.2 µM | > 100 µM | – | > 100 µM | – | – | – | – | – | – | –
17 | O=CN/C=C\c1cc(O)ccc1O | – | > 50.9 µM | 19.2 µM | 25.6 µM | 22.7 µM | 28.9 µM | 10 µM | > 100 µM | 28.9 µM | – | 26.8 µM | – | – | – | – | – | – | –
18 | NCCCCNCCCNC(=O)c1csc(-c2nc(CCN)sc2Cl)n1 | > 100 µM | > 100 µM | > 100 µM | > 100 µM | – | > 100 µM | – | > 100 µM | > 100 µM | > 100 µM | – | – | – | – | – | – | – | –
